Laboratory results reported in the supplement of paper PMC10949913.

Experiments:
Settings in all cases: 48 h
[1] = system: CU-ACC2; assay: AC50 viability; higher = less potent
Outline: (§1)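 AC50 and area under the curve values derive from fitted concentration-response curves, restricted to inhibitory or non-responding curve classes. The curves came from three adrenocortical carcinoma cell lines in 1,536-well plates, each receiving 23 nL of every library compound at 11 concentrations. Viability was read by CellTiter-Glo luminescence after 48 h, normalised per plate to vehicle and empty-well controls.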

[2] = system: CU-ACC2; assay: area under concentration-response curve (viability) (AUC (a.u.)); higher = less active
Outline: as §1

[3] = system: NCI-H295R; assay: AC50 viability; higher = less potent
Outline: as §1

[4] = system: CU-ACC1; assay: AC50 viability; higher = less potent
Outline: as §1

[5] = system: NCI-H295R; assay: area under concentration-response curve (viability) (AUC (a.u.)); higher = less active
Outline: as §1

[6] = system: CU-ACC1; assay: as above
Outline: as §1

Row | SMILES | AC50 viability [1] [µM] | area under concentration-response curve [2] | AC50 viability [3] [µM] | AC50 viability [4] [µM] | area under concentration-response curve [5] | area under concentration-response curve [6]
1 | C[S+](=O)([O-])c1cccc(CNc2nc(Nc3ccc4c(c3)CCC(=O)N4)ncc2C(F)(F)F)c1 | 23.5 | 467 |  |  |  | 
2 | CC1(C)CC[C@@]2(CC[C@]3(C)[C@@H]([C@@H]2C1)C(=O)\C=C\4[C@@]3(C)CC[C@H]5C(C)(C)C(=O)\C(=C/[C@]45C)C#N)NC(=O)C(C)(F)F | 23.5 | 606 |  |  |  | 
3 | CN(C)c1ccc2nc3ccc(N(C)C)cc3[s+]c2c1.[Cl-] | 20.9 | 482 |  |  |  | 
4 | N#CCNC(=O)c1ccc(-c2ccnc(Nc3ccc(N4CCOCC4)cc3)n2)cc1 | 14.8 | 514 |  |  |  | 
5 | CCNC1(C(N)=O)CCN(c2ncnc3c2nc(-c2ccccc2Cl)n3-c2ccc(Cl)cc2)CC1 | 0.295 | 330 |  |  |  | 
6 | CN1CCN(c2cccc(Nc3nc4c(-c5ccc([S+](C)(=O)[O-])cc5)cccn4n3)c2)CC1 | 20.9 | 552 |  |  |  | 
7 | CN1CCN(CC1)\C2=N\C3=C(NC4=C2C=CC=C4)C=CC(=C3)Cl | 33.2 | 398 |  |  |  | 
8 | CCOc1cc2ncc(C#N)c(Nc3ccc(F)c(Cl)c3)c2cc1NC(=O)/C=C/CN(C)C | 8.33 | 419 |  |  |  | 
9 | CC[C@H](CO)Nc1nc(NCc2ccccc2)c2ncn(C(C)C)c2n1 | 20.9 | 582 |  |  |  | 
10 | C=CC(=O)Nc1cccc(C)c1Nc1ncc2cc(-c3c(Cl)c(OC)cc(OC)c3Cl)ccc2n1 | 6.61 | 475 |  |  |  | 
11 | COc1c(Cl)cc2c([nH]c3cnccc32)c1NC(=O)c1cccnc1C | 7.42 | 374 |  |  |  | 
12 | Clc1ccc(C(Cn2ccnc2)OCc2ccc(Sc3ccccc3)cc2)c(Cl)c1 (stereo unspecified) | 23.5 | 528 |  |  |  | 
13 | CN(C)c1ccc(Nc2nc(N)n(C(=O)c3c(F)cccc3F)n2)cc1 | 16.6 | 553 |  |  |  | 
14 | CCc1ccc(C(=O)Nc2cc(CN3CCN(C)CC3)cc(C(F)(F)F)c2)cc1C#Cc1cnc2ccnn2c1 |  | 559 | 8.33 | 7.42 | 431 | 453
15 | C[C@H]1[C@H](O)O[C@@H]2O[C@@]3(C)CC[C@H]4[C@H](C)CC[C@@H]1[C@@]24OO3 |  | 604 | 20.9 | 6.61 | 549 | 494
16 | Cc1cc(C)c([S+](=O)([O-])N(CCc2cccc(Br)c2)Cc2ccc(-c3cccc([S+](C)(=O)[O-])c3)cc2)c(C)c1 |  | 417 | 7.42 | 0.833 | 442 | 412
17 | CC1=C(C)C\2=C(S1)[N]3C(=NN=C3[C@H](CC(=O)NC4=CC=C(OCCOCCOCCOCCNC5=CC=CC6=C5C(=O)N(C7CCC(=O)NC7=O)C6=O)C=C4)\N=C2C8=CC=C(Cl)C=C8)C (stereo partly specified) |  | 484 | 1.86 | 0.417 | 457 | 443
18 | COc1ccc(CCN(C)CCCC(C#N)(c2ccc(OC)c(OC)c2)C(C)C)cc1OC (stereo unspecified) |  | 490 | 23.5 | 29.5 | 397 | 397
19 | NC(=O)c1cccc2nc(-c3ccc([C@H]4CCCN4)cc3F)[nH]c12 |  | 576 | 7.42 | 8.33 | 464 | 453
20 | CNC(=O)Nc1ccc(-c2nc(N3CC4CCC(C3)O4)c3cnn(C4CCC5(CC4)OCCO5)c3n2)cc1 |  | 520 | 1.05 | 0.148 | 455 | 404
21 | NC(=O)c1ccc2[nH]c(-c3ccc(Oc4ccc(Cl)cc4)cc3)nc2c1 |  | 573 | 26.3 | 33.2 | 507 | 450
22 | O=[S+]([O-])(Nc1ccc(-c2cccnc2)c2cccnc12)c1cccc(C(F)(F)F)c1 |  | 595 | 4.17 | 4.68 | 486 | 456
23 | Cc1cccc(CN2CCN(C(c3ccccc3)c3ccc(Cl)cc3)CC2)c1 (stereo unspecified) |  | 534 | 16.6 | 13.2 | 495 | 422
24 | Cc1cccc(-c2[nH]c(C(C)(C)C)nc2-c2ccc3c(c2)OCO3)n1 |  | 595 | 11.8 | 5.25 | 481 | 426
